Results from US7776572B2, “Method for reducing loss of enzyme activity during storage” (Corning Incorporated, priority 1996, dated 2010).
Read-outs that look alike come from different tables or passages of the source.

Experiments:
IgG = experiment: IgG/Au staining of coated polystyrene, type of endgroups
Protocol: Except where indicated, the non-ionic surfactants were applied to the hydrophobic surfaces being tested as a 0.1% (weight/volume) solution in isopropanol. A sufficient amount of coating solution was used to cover the surface being testing with a thin layer of the solution (e.g., 25 μl of the solution per well for a standard 24-well plate). In some cases, the solution was applied to surface by spraying; in others, it was poured onto the surface (into the well). Except where indicated, coated samples were either dried at 70° C. for 30 minutes in an air circulated oven or dried at room temperature overnight to evaporate the isopropanol. Protein binding was determined in some examples using a colloidal gold straining procedure. In accordance with this procedure, colloidal gold becomes electrostatically attached to bound protein and is detected by measuring absorbance at 550 nanometers. Bio-Rad Laboratories' Colloidal Gold Total Protein Stain was used for this purpose, with absorbance being measured with a Cambridge Technologies Plate Reader (No. 7520). The non-ionic surfactants listed in Table 6 were tested for their ability to produce a low binding surface using the techniques described in Materials and Methods. Polystyrene was used as the hydrophobic test surface and IgG/Au staining was used as the readout.

[1] = test system: BSA protein (Bovine Serum Albumin, Fraction V); experiment: BSA binding to coated polystyrene 24-well plates at different pH, colloidal gold stain; conditions: for Absorbance (550 nm) pH = 9.2: BSA 10 μg/ml in 0.10 M NaHCO3 buffer; for Absorbance (550 nm) pH = 7.4: BSA 10 μg/ml in 0.10 M PBS; for Absorbance (550 nm) pH = 4.6: BSA 10 μg/ml in 0.10 M acetate buffer
Protocol: Polystyrene plates having 24 wells (Corning Costar #9447) were coated as described in Materials and Methods.
BSA protein (Bovine Serum Albumin, Fraction V, Sigma) was prepared at 10 μg/ml in 0.10 M acetate buffer (pH=4.6), in 0.10 M PBS (pH=7.4), and in 0.10 M NaHCO3 buffer (pH=9.2). Wells of each coated plate, along with uncoated controls, were aliquoted 0.50 ml each of the protein solutions. The samples were run in triplicate.
The plates were placed on a rocker table for 30 minutes at 23° C. The protein solutions were then emptied from the plates, and the wells were rinsed three times with dl H2O. Thereafter, 1.0 ml of colloidal gold stain was added to each well (see Materials and Methods). The plates were placed on a rocker table overnight, rinsed three times with dI H2O, and air dried. Absorbance at 550 nm was then read using the Cambridge Technologies Plate Reader.

IgG (horse) = experiment: IgG binding to 24-well plates, surfactant dried or not dried before H2O rinse, colloidal Au; conditions: 0.5% surfactant in H2O/isopropanol (90/10); for Absorbance (550 nm) Dried before H2O rinse: then rinsed 5x; for Absorbance (550 nm) H2O rinsed before drying: not dried, rinsed 5x immediately
Protocol: Duplicate 24-well plates were prepared as follows. Individual wells were filled with 3 ml of non-ionic surfactants at 0.5% (weight/volume) in H2O/isopropanol (90/10 weight/volume).
The duplicate plates were incubated for 30 minutes at room temperature on a rocker table and then emptied. One plate was tapped out and then allowed to dry at room temperature in a hood. It was then rinsed 5× with dI H2O. The second plate was not allowed to dry, but instead was immediately rinsed 5× with H2O. The plates were then tested for protein binding by filling each well with 0.5 ml of IgG (horse) at 10 μg/ml in PBS buffer and incubating for 30 minutes on a rocker table at room temperature. The plates were then rinsed with dI H2O and stained overnight with colloidal Au.

[2] = test system: ^125I-IgG (goat anti-mouse); experiment: Radiometric determination of IgG binding to surfactant-coated polystyrene microtiter wells; conditions: for Total IgG binding, Non-Sterilized: coated polystyrene wells; for Total IgG binding, Non-Sterilized / Tight IgG binding, Non-Sterilized: not sterilized; for Total IgG binding, Non-Sterilized / Total IgG binding, Sterilized: after three PBS washes; for Total IgG binding, Sterilized / Tight IgG binding, Sterilized: gamma sterilized (1.5 Mrad); for Tight IgG binding, Sterilized / Tight IgG binding, Non-Sterilized: after two hours in PBS-Tween (0.05%)
Protocol: The hydrophobic surfaces used were flat bottom microtiter plates composed of high binding polystyrene (Corning Costar No. 2581) and medium binding polystyrene (Corning Costar No. 2587). Testing was performed with and without gamma radiation sterilization using cobalt 60 (1.5 Mrad).
The surfactants were applied to the test plates as described in Materials and Methods, followed by sterilization where indicated.
Levels of protein binding were determined using a radiolabeled protein, namely, ^125I-IgG (goat anti-mouse) purchased from DuPont/NEN. Unlabeled IgG in sodium carbonate buffer pH 9.2 was spiked with ^125I-IgG so that the final concentration of labeled IgG and cold IgG in the test solution was 10 μg/mL.
Aliquots of 0.1 milliliters of the protein solution were placed in quadruplicate in the wells of 8-well strips removed from the test microtiter plates. The wells were incubated overnight at 4° C. with shaking. The supernatants were removed from the wells, followed by three washes with 0.2 mL of PBS. The wells were then dried and individually counted to determine “total” IgG binding. After determining “total” binding, the wells were incubated for two hours in 0.2 mL of PBS-Tween (0.05%) at room temperature with shaking. The supernatants were removed from the wells followed by three washes with 0.2 mL of PBS. The wells were dried and individually counted to determine “tight” IgG binding.
Untreated high binding and medium binding plates were used as controls. A comparative experiment was also performed in which a BSA protein coating was used in place of a surfactant coating. The BSA was preabsorbed onto the walls of the wells and then washed to remove excess material. Testing was then performed using the radiolabeled IgG solution as described above.
Radiolabel measurements were performed in a double blind study at BioMolecular Assays (Woburn, Mass.). IgG binding values per microwell were converted to ng/cm^2 values using a surface area of 0.94 cm^2 for a 0.1 mL volume.

MDCK cells = experiment: MDCK cell attachment to coated polystyrene 24-well plates; format: cell-based; conditions: coated PS 24-well, gamma sterilized, media with 5% FBS, two days, visual
Protocol: The procedures used were as follows. Polystyrene 24-well plates were coated with the non-ionic surfactants listed in Table 5 in accordance with the procedures described in Materials and Methods. Uncoated plates were used as a control. For comparison, plates with a covalently attached acrylamide coating (Corning Costar Catalog #2500) and with a stearic acid coating were also tested. The stearic acid coating was applied in the same manner as the non-ionic surfactants again using a 0.1% (w/v) solution.
The plates were gamma sterilized at 1.5 Mrad and then inoculated with 5.6×10^4 MDCK […] per well in 1 ml of complete media containing 5% FBS (Fetal Bovine Serum). Incubation was carried out at 37° C. in a 5% CO2 atmosphere for two days. The plates were fixed and stained, and cell attachment was noted. Following this, the wells were stained using the colloidal gold technique to detect bound protein. Only visual observations were made.
Experiments were also performed with cells suspended in serum. The cells used in these experiments were MDCK cells. The surfactants used were the same as used in Table 5. Again, reduced binding of the cells to surfaces treated with a non-ionic surfactant was observed.

rat = conditions: cited from earlier work

| Molecule | Bound Protein Absorbance at 550 nm (IgG) | Absorbance (550 nm) pH = 9.2 [1] | Absorbance (550 nm) pH = 7.4 [1] | Absorbance (550 nm) pH = 4.6 [1] | Absorbance (550 nm) Dried before H2O rinse (IgG (horse)) | Absorbance (550 nm) H2O rinsed before drying (IgG (horse)) | Total IgG binding, Non-Sterilized [2] [ng/cm^2] | Total IgG binding, Sterilized [2] [ng/cm^2] | Tight IgG binding, Sterilized [2] [ng/cm^2] | Tight IgG binding, Non-Sterilized [2] [ng/cm^2] | MDCK Attachment (MDCK cells) | LD50 (rat; in vivo) [grams/Kg] | LD50 (rat) [grams/Kg] |
| --- | --- | --- | --- | --- | --- | --- | --- | --- | --- | --- | --- | --- | --- |
| CCCCCCCC/C=C\CCCCCCCCOCCOCCO [PEO(2) OLEYL ETHER] | 0.00 | 0.00 | 0.00 | 0.00 | 0.00 | 0.14-0.16 | 7 | 22 | 4 | 5 | – | – | – |
| CCCCCCCCCCCCOCCOCCOCCOCCO [PEO(4) LAURYL ETHER] | – | 0.00 | 0.00 | 0.00 | 0.08-0.10 | 0.13-0.16 | 2 | 10 | 4 | 2 | None | >5 | – |
| PEO(4) SORBITOL MONO-STEARATE | – | 0.00 | 0.00 | 0.00 | – | – | 37 | 130 | 80 | 18 | None | – | – |
| PEO(20) SORBITOL TRI-STEARATE | 0.00 | 0.00 | 0.00 | 0.00 | – | – | 5 | 7 | 4 | 2 | None | – | – |
| SORBITOL MONO-OLEATE | 0.00 | 0.00 | 0.00 | 0.00 | – | – | 31 | 33 | 5 | 7 | – | – | >39 |
